Key:
[1] = tested on: brain mitochondria; assay: Brain (hypothalamus) mitochondrial morphology, citrate synthase staining; format: in vivo, mouse; conditions: single oral dose 120 mg/kg, HFD-fed mice
Description: Preventing mitochondrial fission in the liver improves insulin sensitivity in mice with diet-induced obesity, while blocking fission in anorexigenic hypothalamic POMC neurons reduces food intake by restoring leptin sensitivity (A. Santoro, et al., 2017; and M. Schneeberger, et al., 2013, cited supra). To determine whether sphingolipid-like compound 893 was also effective in the hypothalamus, mitochondrial morphology was assessed in the brains of the same mice evaluated in FIG. 13. Due to the increased time required to remove the organ, brain mitochondria were visualized in fixed tissues by immunofluorescence microscopy rather than by NADH/NADPH autofluorescence. […] Sphingolipid-like compound 893 reversed these HFD-induced changes in mitochondrial morphology in the brains of 3 out of 4 animals examined (FIG. 14). […]
MEFs were washed twice with PBS and fixed with 4% paraformaldehyde for 10 min at RT. […] NADH/NADPH autofluorescence was detected with 740 nm excitation and 450±50 nm detectors using a Mai Tai two-photon laser. Fluorescence microscopy was performed on a Zeiss LSM 780 confocal using a 63× oil objective with a […] numerical aperture (NA) or using a Nikon TE2000-S inverted epifluorescence microscope with a 100× oil objective (1.3 NA) and a Photometrics CoolSNAP ES2 monochrome CCD camera. […]

[2] = tested on: leptin; assay: Serum leptin ELISA in HFD-fed mice; format: in vivo, mouse
Description: Further assessment was performed to determine the level of leptin circulating in HFD-fed mice treated with sphingolipid-like compound 893. Mice were fed a HFD for 4 weeks and randomly distributed into two groups with the same mean weight. Mice were gavaged with water (n=7) or 120 mg/kg 893 (n=8) at ZT8.5. Blood was collected from the saphenous vein between ZT15-18 in pairs of treated vs. untreated animals and leptin levels were measured in serum using ELISA (CrystalChem, cat #90030).

[3] = tested on: protein phosphatase 2A (PP2A); conditions: cited from earlier work

Structure (SMILES): CCCCCCCCc1ccc([C@H]2CCN[C@@H]2CO)cc1.Cl [compound 893]
- Animals with reversal of HFD-induced changes in brain mitochondrial morphology [1]: 3 out of 4
- Leptin production by adipocytes ([2]; in vivo): reduced leptin production by adipocytes in vivo
- Circulating leptin levels (serum) ([2]; mice on HFD 4 weeks, 120 mg/kg at ZT8.5, blood at ZT15-18): lowered levels of circulating leptin
- Effect on PP2A [3]: activate protein phosphatase 2A (PP2A)

— patent US20220409617A1, “Drug Formulations and Methods of Treatment for Metabolic Disorders” (The Regents of the University of California, priority 2019, published 2022)
